Source: ChEMBL document CHEMBL4196217, “Structure-Based Drug Design and Identification of H2O-Soluble and Low Toxic Hexacyclic Camptothecin Derivatives with Improved Efficacy in Cancer and Lethal Inflammation Models in Vivo” (J Med Chem, 2018)
Active and inactive are the calls of the source. The rule behind the calls is not given here.

Key:
[1] = test system: SMMC-7721; experiment: Cytotoxicity in human SMMC7721 cells assessed as reduction in cell viability incubated for 48 hrs by MTT assay; assay type: functional, cell-based; conditions: SMMC-7721, 48 h
[2] = test system: KB; experiment: Cytotoxicity in human KB cells assessed as reduction in cell viability incubated for 48 hrs by MTT assay; assay type: functional, cell-based
[3] = test system: SGC-7901; experiment: Cytotoxicity in human SGC7901 cells assessed as reduction in cell viability incubated for 48 hrs by MTT assay; assay type: functional, cell-based; conditions: SGC-7901, 48 h
[4] = test system: MDA-MB-231; experiment: Cytotoxicity in human MDA-MB-231 cells assessed as reduction in cell viability incubated for 48 hrs by MTT assay; assay type: functional, cell-based; conditions: MDA-MB-231, 48 h
[5] = test system: QGY-7703; experiment: Cytotoxicity in human QGY7703 cells assessed as reduction in cell viability incubated for 48 hrs by MTT assay; assay type: functional, cell-based; conditions: QGY-7703, 48 h
[6] = test system: A549; experiment: cells; conditions: Homo sapiens, A549, 48 h
Description: Cytotoxicity in human A549 cells assessed as reduction in cell viability incubated for 48 hrs by MTT assay

[7] = test system: MGC-803; experiment: Cytotoxicity in human MGC803 cells assessed as reduction in cell viability incubated for 48 hrs by MTT assay; assay type: functional, cell-based; conditions: MGC-803, 48 h
[8] = test system: HepG2; experiment: Cytotoxicity in human HepG2 cells assessed as reduction in cell viability incubated for 48 hrs by MTT assay; assay type: functional, cell-based; conditions: HepG2, 48 h
[9] = test system: MCF7; experiment: cells; conditions: Homo sapiens, MCF7, 48 h
Description: Cytotoxicity in human MCF7 cells assessed as reduction in cell viability incubated for 48 hrs by MTT assay

[10] = test system: Bel-7402; experiment: Cytotoxicity in human Bel7402 cells assessed as reduction in cell viability incubated for 48 hrs by MTT assay; assay type: functional, cell-based; conditions: Bel-7402, 48 h
[11] = test system: Mus musculus; experiment: Reduction in IL6 level in C57BL/6 mouse model of LPS-induced sepsis at 10 mg/kg, po dosed 0.5 hrs before LPS injection followed by 20 mg/kg, po dosing at 1 hr, 4 hrs, and 8 hrs after LPS treatment; assay type: functional, organism-based
[12] = test system: HepG2; experiment: Antitumor activity against human HepG2 cells xenografted in Balb/C mouse assessed as inhibition of tumor growth at dosed intravenously once per week for 30 days followed by 2 weeks observation; assay type: functional, organism-based
[13] = target: T1, DNA topoisomerase 1 (Homo sapiens) (UniProt P11387); experiment: Inhibition of human recombinant topoisomerase-1-mediated DNA cleavage in at 100 uM using supercoiled pHOT-1 DNA incubated for 30 mins by ethidium bromide staining based agarose gel elctrophoresis method
T1 sequence (whole entry): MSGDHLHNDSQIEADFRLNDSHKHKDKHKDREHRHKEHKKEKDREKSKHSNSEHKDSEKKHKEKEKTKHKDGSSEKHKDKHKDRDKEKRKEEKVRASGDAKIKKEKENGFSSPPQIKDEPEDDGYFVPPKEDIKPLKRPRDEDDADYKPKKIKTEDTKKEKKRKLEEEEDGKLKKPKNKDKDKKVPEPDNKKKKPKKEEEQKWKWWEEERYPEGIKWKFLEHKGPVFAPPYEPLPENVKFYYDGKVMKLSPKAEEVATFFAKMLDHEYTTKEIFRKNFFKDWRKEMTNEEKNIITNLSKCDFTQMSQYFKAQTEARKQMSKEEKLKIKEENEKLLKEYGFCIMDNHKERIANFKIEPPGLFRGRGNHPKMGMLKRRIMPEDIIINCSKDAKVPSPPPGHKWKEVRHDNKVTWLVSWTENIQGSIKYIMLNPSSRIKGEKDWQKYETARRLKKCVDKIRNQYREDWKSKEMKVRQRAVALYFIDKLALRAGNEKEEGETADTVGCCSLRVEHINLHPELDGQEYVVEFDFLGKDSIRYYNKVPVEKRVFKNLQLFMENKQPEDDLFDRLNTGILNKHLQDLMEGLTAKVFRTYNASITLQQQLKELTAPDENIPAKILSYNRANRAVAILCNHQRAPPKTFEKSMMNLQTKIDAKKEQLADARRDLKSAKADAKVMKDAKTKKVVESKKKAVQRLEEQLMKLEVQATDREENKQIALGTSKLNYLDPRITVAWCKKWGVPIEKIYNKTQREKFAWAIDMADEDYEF

[14] = test system: Mus musculus; experiment: Reduction in IL6 level in C57BL/6 mouse model of LPS-induced sepsis at 10 mg/kg, po dosed 0.5 hrs before LPS injection followed by 10 mg/kg, po dosing at 1 hr, 4 hrs, and 8 hrs after LPS treatment; assay type: functional, organism-based
[15] = target: T1, DNA topoisomerase 1 (Homo sapiens); experiment: Inhibition of human recombinant topoisomerase-1 activity at 100 uM using supercoiled pHOT-1 DNA incubated for 30 mins by ethidium bromide free agarose gel elctrophoresis method
[16] = target: T1, DNA topoisomerase 1 (Homo sapiens); experiment: Inhibition of human recombinant topoisomerase-1-mediated DNA cleavage in at 50 uM using supercoiled pHOT-1 DNA incubated for 30 mins by ethidium bromide staining based agarose gel elctrophoresis method
[17] = target: T1, DNA topoisomerase 1 (Homo sapiens); experiment: Inhibition of human recombinant topoisomerase-1 activity at 50 uM using supercoiled pHOT-1 DNA incubated for 30 mins by ethidium bromide free agarose gel elctrophoresis method
[18] = test system: SK-N-SH; experiment: Cytotoxicity in human SK-N-SH cells assessed as reduction in cell viability incubated for 48 hrs by MTT assay; assay type: functional, cell-based
[19] = test system: HepG2; experiment: Potency index, ratio of IC50 for topotecan to IC50 for test compound for cytotoxicity in human HepG2 cells assessed as reduction in cell viability incubated for 48 hrs by MTT assay; assay type: functional
[20] = test system: MGC-803; experiment: Potency index, ratio of IC50 for topotecan to IC50 for test compound for cytotoxicity in human MGC803 cells assessed as reduction in cell viability incubated for 48 hrs by MTT assay; assay type: functional
[21] = test system: Mus musculus; experiment: Toxicity in Balb/C mouse administered as daily dose for 1 week measured daily for up to 28 days; assay type: organism-based; conditions: in vivo
[22] = Aqueous solubility of the compound; assay type: physicochemical; conditions: buffer
[23] = test system: Mus musculus; experiment: Toxicity in Balb/C mouse administered as single dose measured daily for up to 28 days; assay type: organism-based; conditions: in vivo, 672 h

| SMILES | IC50 [1] | IC50 [2] | IC50 [3] | IC50 [4] | IC50 [5] | IC50 [6] | IC50 [7] | IC50 [8] | IC50 [9] | IC50 [10] | further results |
| --- | --- | --- | --- | --- | --- | --- | --- | --- | --- | --- | --- |
| CC[C@@]1(O)C(=O)OCc2c1cc1n(c2=O)Cc2cc3c(ccc4oc(-c5ccccn5)nc43)nc2-1 | > 10000 nM | 2040 nM | > 10000 nM | 2000 nM | > 10000 nM | 1500 nM | 54 nM | 71 nM | 6440 nM | 1930 nM | – |
| CC[C@@]1(OC(=O)CNC(=O)CCC(=O)O)C(=O)OCc2c1cc1n(c2=O)Cc2cc3c(ccc4oc(C(C)C)nc43)nc2-1 | – | – | – | – | – | – | – | – | – | – | Activity [11]: Active; TGI [12]: Dose-dependent effect; inhibition [13]: Active; Activity [14]: Active; inhibition [15]: Active; inhibition [16]: Active; inhibition [17]: Active |
| CC[C@@]1(OC(=O)CNC(=O)CCC(=O)O)C(=O)OCc2c1cc1n(c2=O)Cc2cc3c(ccc4oncc43)nc2-1 | > 10000 nM | 7140 nM | > 10000 nM | 641 nM | > 10000 nM | 1830 nM | 275 nM | 348 nM | > 10000 nM | 2020 nM | IC50 [18]: 549 nM |
| CC[C@@]1(O)C(=O)OCc2c1cc1n(c2=O)Cc2cc3c(ccc4oc(C(C)C)nc43)nc2-1 | 10400 nM | 2200 nM | > 10000 nM | 1440 nM | 11600 nM | 1390 nM | 18 nM | 16 nM | 4640 nM | 3480 nM | Ratio IC50 [19]: 10; Ratio IC50 [20]: 10 |
| CC[C@@]1(O)C(=O)OCc2c1cc1n(c2=O)Cc2cc3c(ccc4oc(CC(C)C)nc43)nc2-1 | 11000 nM | 2200 nM | > 10000 nM | 2140 nM | > 10000 nM | 3370 nM | 90 nM | 79 nM | 7860 nM | 2140 nM | – |
| CC[C@@]1(OC(=O)CNC(=O)CCC(=O)[O-])C(=O)OCc2c1cc1n(c2=O)Cc2cc3c4c(ccc3nc2-1)OC(C(C)C)NC4=O.[Na+] (stereo partly drawn) | – | – | – | – | – | – | – | – | – | – | MTD [21]: 10 mg/kg; solubility [22]: 3400 µg/mL; MTD [23]: 16 mg/kg |
